Measured values: patent US20230085307A1, “PYRIDAZINONE COMPOUND AND HERBICIDE” (NISSAN CHEMICAL CORPORATION, priority 2019, published 2023)

tested on: oval-leafed pondweed; experiment: Test Example 1: herbicidal activity, application before weed generation under submerged conditions (Table 16, symbol C); assay type: in vivo, oval-leafed pondweed (Monochoria vaginalis); conditions: 320 g/ha applied herbicide
In short: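 Alluvial soil was flooded to 4 cm depth, weed seeds were sown mixed and 2.5-leaf rice seedlings were transplanted. On sowing day, the compound's emulsion, diluted in water to a set dose, was applied to the water surface. Plants grew at 25–30 °C and were scored 0–5 after three weeks.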

Structure (SMILES) | Herbicidal effect on C: oval-leafed pondweed (grade 0-5)
CCOc1cc(F)ccc1-c1sc2ccccc2c1-c1c(O)c(C)nn(C)c1=O [1-061] | 3 (Herbicidal rate of 40% or more and less than 70%)
CCCC(=O)Oc1c(C)nn(C)c(=O)c1-c1c(-c2ccc(OC)c(OC)c2)sc2ccccc12 [1-073] | 0 (Herbicidal rate of 5% or less (almost no effect))

tested on: Japanese bulrush; experiment: Test Example 2: herbicidal activity, application during weed generation under submerged conditions (Table 17, symbol B); assay type: in vivo, Japanese bulrush (Schoenoplectus juncoides); conditions: AAH 320 g/ha; application during weed generation, submerged conditions
In short: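 Herbicide emulsion, diluted with water to the chosen amount, is applied onto 4 cm floodwater over alluvial soil where the weeds were co-sown and raised at 25–30° C. Application timing: 1–2 leaves. Assessment: three weeks afterwards.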

Structure (SMILES) | herbicidal effect rating, B: Japanese bulrush
CCOc1cc(F)ccc1-c1sc2ccccc2c1-c1c(O)c(C)nn(C)c1=O [1-061] | 3 (Herbicidal rate of 40% or more and less than 70%)
CCCC(=O)Oc1c(C)nn(C)c(=O)c1-c1c(-c2ccc(OC)c(OC)c2)sc2ccccc12 [1-073] | 5 (Herbicidal rate of 90% or more (almost completely withered))

tested on: southern crabgrass; experiment: Test Example 4: herbicidal effect by soil treatment (Table 19, symbol F); assay type: in vivo, southern crabgrass (Digitaria ciliaris); conditions: amount of applied herbicide 320 g/ha
In short: (§1)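 Three weeks of greenhouse growth at 25° C. to 30° C. followed a uniform surface spray of water-diluted emulsion at a predetermined herbicide amount. Seeds had been sown beforehand under about 1.5 cm of sterilized diluvial soil. Grading followed criteria set out in an earlier test.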

Structure (SMILES) | herbicidal effect rating, F: southern crabgrass
CCOc1cc(F)ccc1-c1sc2ccccc2c1-c1c(O)c(C)nn(C)c1=O [1-061] | 5 (Herbicidal rate of 90% or more (almost completely withered))
CCCC(=O)Oc1c(C)nn(C)c(=O)c1-c1c(-c2ccc(OC)c(OC)c2)sc2ccccc12 [1-073] | 5 (Herbicidal rate of 90% or more (almost completely withered))

tested on: green foxtail; experiment: Test Example 4: herbicidal effect by soil treatment (Table 19, symbol G); assay type: in vivo, green foxtail (Setaria viridis); conditions: amount of applied herbicide 320 g/ha
In short: as §1

Structure (SMILES) | herbicidal effect rating, G: green foxtail
CCOc1cc(F)ccc1-c1sc2ccccc2c1-c1c(O)c(C)nn(C)c1=O [1-061] | 5 (Herbicidal rate of 90% or more (almost completely withered))
CCCC(=O)Oc1c(C)nn(C)c(=O)c1-c1c(-c2ccc(OC)c(OC)c2)sc2ccccc12 [1-073] | 5 (Herbicidal rate of 90% or more (almost completely withered))

tested on: barnyard grass; experiment: Test Example 4: herbicidal effect by soil treatment (Table 19, symbol H); assay type: in vivo, barnyard grass (Echinochloa crus-galli); conditions: amount of applied herbicide 320 g/ha
In short: as §1

Structure (SMILES) | herbicidal effect rating, H: barnyard grass
CCOc1cc(F)ccc1-c1sc2ccccc2c1-c1c(O)c(C)nn(C)c1=O [1-061] | 4 (Herbicidal rate of 70% or more and less than 90%)
CCCC(=O)Oc1c(C)nn(C)c(=O)c1-c1c(-c2ccc(OC)c(OC)c2)sc2ccccc12 [1-073] | 4 (Herbicidal rate of 70% or more and less than 90%)

tested on: wild oat; experiment: Test Example 4: herbicidal effect by soil treatment (Table 19, symbol I); assay type: in vivo, wild oat (Avena fatua); conditions: amount of applied herbicide 320 g/ha
In short: as §1

Structure (SMILES) | herbicidal effect rating, I: wild oat
CCOc1cc(F)ccc1-c1sc2ccccc2c1-c1c(O)c(C)nn(C)c1=O [1-061] | 3 (Herbicidal rate of 40% or more and less than 70%)
CCCC(=O)Oc1c(C)nn(C)c(=O)c1-c1c(-c2ccc(OC)c(OC)c2)sc2ccccc12 [1-073] | 2 (Herbicidal rate of 20% or more and less than 40%)

tested on: blackgrass; experiment: Test Example 4: herbicidal effect by soil treatment (Table 19, symbol J); assay type: in vivo, blackgrass (Alopecurus myosuroides); conditions: amount of applied herbicide 320 g/ha
In short: as §1

Structure (SMILES) | herbicidal effect rating, J: blackgrass
CCOc1cc(F)ccc1-c1sc2ccccc2c1-c1c(O)c(C)nn(C)c1=O [1-061] | 5 (Herbicidal rate of 90% or more (almost completely withered))
CCCC(=O)Oc1c(C)nn(C)c(=O)c1-c1c(-c2ccc(OC)c(OC)c2)sc2ccccc12 [1-073] | 2 (Herbicidal rate of 20% or more and less than 40%)

tested on: velvetleaf; experiment: Test Example 4: herbicidal effect by soil treatment (Table 19, symbol M); assay type: in vivo, velvetleaf (Abutilon theophrasti); conditions: amount of applied herbicide 320 g/ha
In short: as §1

Structure (SMILES) | herbicidal effect rating, M: velvetleaf
CCOc1cc(F)ccc1-c1sc2ccccc2c1-c1c(O)c(C)nn(C)c1=O [1-061] | 0 (Herbicidal rate of 5% or less (almost no effect))
CCCC(=O)Oc1c(C)nn(C)c(=O)c1-c1c(-c2ccc(OC)c(OC)c2)sc2ccccc12 [1-073] | 4 (Herbicidal rate of 70% or more and less than 90%)

tested on: lambsquarters; experiment: Test Example 4: herbicidal effect by soil treatment (Table 19, symbol O); assay type: in vivo, lambsquarters (Chenopodium album); conditions: amount of applied herbicide 320 g/ha
In short: as §1

Structure (SMILES) | herbicidal effect rating, O: lambsquarters
CCOc1cc(F)ccc1-c1sc2ccccc2c1-c1c(O)c(C)nn(C)c1=O [1-061] | 3 (Herbicidal rate of 40% or more and less than 70%)
CCCC(=O)Oc1c(C)nn(C)c(=O)c1-c1c(-c2ccc(OC)c(OC)c2)sc2ccccc12 [1-073] | 5 (Herbicidal rate of 90% or more (almost completely withered))

tested on: chickweed; experiment: Test Example 4: herbicidal effect by soil treatment (Table 19, symbol P); assay type: in vivo, common chickweed (Stellaria media); conditions: amount of applied herbicide 320 g/ha
In short: as §1

Structure (SMILES) | herbicidal effect rating, P: chickweed
CCOc1cc(F)ccc1-c1sc2ccccc2c1-c1c(O)c(C)nn(C)c1=O [1-061] | 5 (Herbicidal rate of 90% or more (almost completely withered))
CCCC(=O)Oc1c(C)nn(C)c(=O)c1-c1c(-c2ccc(OC)c(OC)c2)sc2ccccc12 [1-073] | 4 (Herbicidal rate of 70% or more and less than 90%)

tested on: persian speedwell; experiment: Test Example 4: herbicidal effect by soil treatment (Table 19, symbol R); assay type: in vivo, Persian speedwell (Veronica persica); conditions: amount of applied herbicide 320 g/ha
In short: as §1

Structure (SMILES) | herbicidal effect rating, R: persian speedwell
CCOc1cc(F)ccc1-c1sc2ccccc2c1-c1c(O)c(C)nn(C)c1=O [1-061] | 5 (Herbicidal rate of 90% or more (almost completely withered))
CCCC(=O)Oc1c(C)nn(C)c(=O)c1-c1c(-c2ccc(OC)c(OC)c2)sc2ccccc12 [1-073] | 5 (Herbicidal rate of 90% or more (almost completely withered))

tested on: Italian ryegrass; experiment: Test Example 5: herbicidal effect by foliage application, plastic box (Table 20, symbol K); assay type: in vivo, Italian ryegrass (Lolium multiflorum); conditions: foliage application, 320 g/ha, three weeks after application
In short: (§2)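 Plants sown in sterilized diluvial soil and grown 14 days in a greenhouse at 25° C to 30° C, then sprayed on the foliage with the compound's emulsion diluted in water to a predetermined herbicide amount. Injury to weeds and crops scored three weeks after application on a visual rating scale.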

Structure (SMILES) | herbicidal effect grade, K: Italian ryegrass
CCOc1cc(F)ccc1-c1sc2ccccc2c1-c1c(O)c(C)nn(C)c1=O [1-061] | 4 (Herbicidal rate of 70% or more and less than 90%)
CCCC(=O)Oc1c(C)nn(C)c(=O)c1-c1c(-c2ccc(OC)c(OC)c2)sc2ccccc12 [1-073] | 5 (Herbicidal rate of 90% or more (almost completely withered))

tested on: windgrass; experiment: Test Example 5: herbicidal effect by foliage application, plastic box (Table 20, symbol L); assay type: in vivo, windgrass (Apera spica-venti); conditions: foliage application, 320 g/ha, three weeks after application
In short: as §2

Structure (SMILES) | herbicidal effect grade, L: windgrass
CCOc1cc(F)ccc1-c1sc2ccccc2c1-c1c(O)c(C)nn(C)c1=O [1-061] | 5 (Herbicidal rate of 90% or more (almost completely withered))
CCCC(=O)Oc1c(C)nn(C)c(=O)c1-c1c(-c2ccc(OC)c(OC)c2)sc2ccccc12 [1-073] | 0 (Herbicidal rate of 5% or less (almost no effect))

tested on: velvetleaf; experiment: Test Example 5: herbicidal effect by foliage application, plastic box (Table 20, symbol M); assay type: in vivo, velvetleaf (Abutilon theophrasti); conditions: foliage application, 320 g/ha, three weeks after application
In short: as §2

Structure (SMILES) | herbicidal effect grade, M: velvetleaf
CCOc1cc(F)ccc1-c1sc2ccccc2c1-c1c(O)c(C)nn(C)c1=O [1-061] | 5 (Herbicidal rate of 90% or more (almost completely withered))
CCCC(=O)Oc1c(C)nn(C)c(=O)c1-c1c(-c2ccc(OC)c(OC)c2)sc2ccccc12 [1-073] | 5 (Herbicidal rate of 90% or more (almost completely withered))

tested on: redroot pigweed; experiment: Test Example 5: herbicidal effect by foliage application, plastic box (Table 20, symbol N); assay type: in vivo, redroot pigweed (Amaranthus retroflexus); conditions: foliage application, 320 g/ha, three weeks after application
In short: as §2

Structure (SMILES) | herbicidal effect grade, N: redroot pigweed
CCOc1cc(F)ccc1-c1sc2ccccc2c1-c1c(O)c(C)nn(C)c1=O [1-061] | 5 (Herbicidal rate of 90% or more (almost completely withered))
CCCC(=O)Oc1c(C)nn(C)c(=O)c1-c1c(-c2ccc(OC)c(OC)c2)sc2ccccc12 [1-073] | 5 (Herbicidal rate of 90% or more (almost completely withered))

tested on: lambsquarters; experiment: Test Example 5: herbicidal effect by foliage application, plastic box (Table 20, symbol O); assay type: in vivo, lambsquarters (Chenopodium album); conditions: foliage application, 320 g/ha, three weeks after application
In short: as §2

Structure (SMILES) | herbicidal effect grade, O: lambsquarters
CCOc1cc(F)ccc1-c1sc2ccccc2c1-c1c(O)c(C)nn(C)c1=O [1-061] | 4 (Herbicidal rate of 70% or more and less than 90%)
CCCC(=O)Oc1c(C)nn(C)c(=O)c1-c1c(-c2ccc(OC)c(OC)c2)sc2ccccc12 [1-073] | 5 (Herbicidal rate of 90% or more (almost completely withered))

tested on: chickweed; experiment: Test Example 5: herbicidal effect by foliage application, plastic box (Table 20, symbol P); assay type: in vivo, common chickweed (Stellaria media); conditions: foliage application, 320 g/ha, three weeks after application
In short: as §2

Structure (SMILES) | herbicidal effect grade, P: chickweed
CCOc1cc(F)ccc1-c1sc2ccccc2c1-c1c(O)c(C)nn(C)c1=O [1-061] | 5 (Herbicidal rate of 90% or more (almost completely withered))
CCCC(=O)Oc1c(C)nn(C)c(=O)c1-c1c(-c2ccc(OC)c(OC)c2)sc2ccccc12 [1-073] | 5 (Herbicidal rate of 90% or more (almost completely withered))
